How the values were obtained:
Format in all cases: cell-based
Human GPR120 short form [1] = target: T1, Human GPR120 short form (Homo sapiens, UniProt Q5NUL3); test: Human GPR120 calcium flux assay, Procedure Calcium A (2500 cells/well)
T1 construct: expressed in transfected cells
T1 sequence (Q5NUL3 1-361): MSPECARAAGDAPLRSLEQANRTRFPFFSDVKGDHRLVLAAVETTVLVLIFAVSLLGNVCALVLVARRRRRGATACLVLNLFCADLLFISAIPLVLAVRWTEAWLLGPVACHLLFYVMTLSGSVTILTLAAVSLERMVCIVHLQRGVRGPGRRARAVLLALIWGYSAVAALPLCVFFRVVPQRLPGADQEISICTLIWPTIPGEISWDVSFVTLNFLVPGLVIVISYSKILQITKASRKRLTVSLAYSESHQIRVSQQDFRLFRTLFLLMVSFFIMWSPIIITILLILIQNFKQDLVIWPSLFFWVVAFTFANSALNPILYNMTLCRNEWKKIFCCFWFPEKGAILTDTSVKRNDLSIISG
Source text: Human GPR120 in Calcium Flux Assay
This in vitro assay serves to assess test compound agonist activity against the short splice variant (SVS with Accession number NM_001195755.1 confirmed by sequencing data) of the GPR120 receptor. The Human Short splice variant #2 (NM_001195755.1) is missing an in-frame coding exon compared to variant 1 (the Human Long splice variant NM_181745.3), resulting in a shorter isoform (GPR120-S) lacking a 16 aa protein segment compared to isoform GPR120-L. The assay platform utilizes HEK-293 cells stably transfected to express the Human GPR120 short form. These cells are first loaded with the Ca^+2 sensitive dye, Fluo-4 NW. Upon stimulation, intracellular released Ca^+2 can bind to the dye and alter its fluorescence intensity. This increase in fluorescence signal, and thus the flux in intracellular [Ca^2+], is detected and quantitated by fluorescence imaging using a FLIPR reader. The effect of the agonist is measured as a function of concentration and used to calculate an EC50 based upon a response curve.
In this procedure 2500 cells/well were employed.
A Human GPR120 clone (Genbank accession number NM_001195755.1) was placed into the pcDNA3.1 mammalian expression vector carrying the neomycin resistance gene. A stable mammalian cell was generated by placing the above clone into a HEK293 background. Clonal cells responding to long chain fatty acids had expression levels of GPR120 confirmed by RT-qPCR. Human HEK-GPR120 cells were cultured in Dulbecco's Modified Eagle's Medium (DMEM)/F12 medium supplemented with 10% fetal bovine serum (FBS), 1% L-Glutamine and 1% penicillin/streptomycin and 0.5 mg/ml G-418. Cells were split 2 times a week to keep the cells in the log-phase growth.
In preparation for the assay, HEK cells stably transfected with Human GPR120 (2.5K cells per well in 25 uL growth medium) were seeded into 384-well plates and then incubated overnight (37° C., 5% CO2). The next day, the media was changed to 20 μL assay buffer and the cell starved for 1 h at 37° C. The dye loading solution (2× dye) was prepared using 10 mL assay buffer, 100 μL of 250 mM probenecid, 1 bottle of Component A, and 20 μl of dye in DMSO. Twenty μL of the 2× dye loading buffer was then added to each well. The plates were incubated at 37° C. for 30 min, then at room temperature for an additional 15 minutes, before performing the assay on FLIPR.
The assay was performed on a FLIPR plate reader using the following parameters. Baseline was read for 10 seconds at 1 sec intervals. The program was set to transfer 10 μL of ligand from compound plate to cell plate after baseline reading. Aspiration was executed at: 10 μL/sec speed, 4.6 μL height, Dispensing was executed at: 30 μL/sec speed, 45 μL height. After compound addition, each well was read for 300 sec, with measurements collected at 1 sec intervals.
The kinetic data from the FLIPR was based upon a 5 minute window for data collection. The fluorescence of each sample well was used for individual calculations of a normalized RFU value, which was defined as maximum response minus the minimum response. The normalized fluorescence reading (RFU) was calculated as follows: RFU=Fmax−Fmin
The Fitting Equation was: Y=Bottom+(Top-Bottom)/(1+10^((Log EC50−X)*HillSlope)), where X is the log of the concentration and Y is the response.

human GPR40 = target: T2, human GPR40 (Homo sapiens, UniProt O14842); test: GPR40 calcium flux assay, human GPR40; details: HEK293 cells stably expressing GPR40; table does not say human or rat
T2 construct: expressed in transfected cells
Procedure, shortened: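 Cells preincubated 1 h at 37° C. in HBSS, 20 mM HEPES, 0.1% BSA, then Fluo 8 calcium dye 30 min at 37° C. and 15 min at room temperature.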

Human GPR120 short form [2] = target: T1, Human GPR120 short form; test: Human GPR120 calcium flux assay, Procedure Calcium B (4200 cells/well)
Procedure, shortened: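 HEK293 cells stably expressing human GPR120 (NM_001195755.1), 4200 cells/well, starved 1 h and loaded with Fluo-4 NW plus probenecid. Ligand-evoked calcium flux read on FLIPR for 300 s after a 10 s baseline. RFU = Fmax−Fmin; EC50 from four-parameter concentration-response fit.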

[3] = target: T3, long form of human GPR120 (Homo sapiens, UniProt Q5NUL3); test: Human GPR120 DiscoveRx PathHunter Beta-Arrestin assay, Procedure β-arrestin A
T3 construct: host or cells: PathHunter CHO-K1 GPR120 β-Arrestin Cell Line
Procedure, shortened: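 PathHunter CHO-K1 cells expressing long-form human GPR120 (3000/well) were seeded overnight. They were then preincubated 60 min in HBSS with 20 mM HEPES and 0.1% BSA, pH 7.4, and exposed to compound for 90 min at 37 °C. β-Arrestin recruitment was read as β-gal complementation luminescence. EC50 came from % activity versus positive control, Hill slope fixed at 1.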

T3 sequence (Q5NUL3 1-377 isoform Q5NUL3-1): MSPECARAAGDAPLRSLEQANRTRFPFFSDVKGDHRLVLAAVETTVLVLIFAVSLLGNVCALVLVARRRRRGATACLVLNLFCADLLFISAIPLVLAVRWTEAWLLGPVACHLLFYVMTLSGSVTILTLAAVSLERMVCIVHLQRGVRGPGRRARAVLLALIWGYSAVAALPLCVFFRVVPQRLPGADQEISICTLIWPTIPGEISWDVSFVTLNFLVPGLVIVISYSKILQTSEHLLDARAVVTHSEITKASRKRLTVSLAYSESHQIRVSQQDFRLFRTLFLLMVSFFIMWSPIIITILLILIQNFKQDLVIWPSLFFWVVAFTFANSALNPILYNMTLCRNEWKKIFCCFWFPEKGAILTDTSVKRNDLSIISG
T3 sequence (P32121 whole entry partner): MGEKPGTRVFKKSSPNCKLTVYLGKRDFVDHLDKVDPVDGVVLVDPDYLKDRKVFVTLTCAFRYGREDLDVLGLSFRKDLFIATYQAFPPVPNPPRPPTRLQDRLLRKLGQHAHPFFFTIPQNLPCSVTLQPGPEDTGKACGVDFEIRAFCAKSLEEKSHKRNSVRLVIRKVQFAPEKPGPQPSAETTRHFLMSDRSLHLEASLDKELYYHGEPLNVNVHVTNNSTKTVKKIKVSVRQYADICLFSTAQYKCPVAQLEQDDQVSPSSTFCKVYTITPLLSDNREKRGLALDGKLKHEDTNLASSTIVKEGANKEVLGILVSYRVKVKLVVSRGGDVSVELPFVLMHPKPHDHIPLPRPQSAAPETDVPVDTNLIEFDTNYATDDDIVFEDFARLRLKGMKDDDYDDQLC
T2 sequence (O14842 whole entry): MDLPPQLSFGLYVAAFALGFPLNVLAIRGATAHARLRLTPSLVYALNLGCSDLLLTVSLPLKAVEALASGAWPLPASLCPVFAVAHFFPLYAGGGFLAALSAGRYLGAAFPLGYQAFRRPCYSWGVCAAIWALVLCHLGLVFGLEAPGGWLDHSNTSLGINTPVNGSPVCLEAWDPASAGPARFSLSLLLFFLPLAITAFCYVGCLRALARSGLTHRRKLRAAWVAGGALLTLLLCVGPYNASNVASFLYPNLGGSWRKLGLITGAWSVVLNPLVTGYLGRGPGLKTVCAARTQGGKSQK

| EC50 (Human GPR120 short form [1]) [nM] | EC50 (human GPR40) [nM] | EC50 (Human GPR120 short form [2]) [nM] | EC50 [3] [nM] | SMILES |
| --- | --- | --- | --- | --- |
| > 5000 |  |  |  | Cc1c(CCC(=O)O)ccc(OCC2=C(c3ccc([S+](C)[O-])cc3)CCC2)c1C (centres unmarked) [Compound 120, 3-[2,3-dimethyl-4-[[2-(4-methylsulfinylphenyl)cyclopenten-1-yl]methoxy]phenyl]Propanoic Acid] |
| > 5000 | > 5000 |  |  | CC(=O)Nc1ccc(C2=C(COc3ccc(CCC(=O)O)c(C)c3C)CCCC2)cc1 [Compound 495, 3-[4-[[2-(4-acetamidophenyl)cyclohexen-1-yl]methoxy]-2,3-dimethyl-phenyl]Propanoic Acid] |
| > 5000 | > 5000 |  |  | CCCc1ccc(C2=C(COc3ccc(CCC(=O)O)c(C)c3C)CCC2)cc1 [Compound 140, 3-[2,3-dimethyl-4-[[2-(4-propylphenyl)cyclopenten-1-yl]methoxy]phenyl]Propanoic Acid] |
| > 5000 | > 5000 |  |  | COc1cc(C2=C(COc3ccc(CCC(=O)O)c(C)c3C)CCC2)ccc1C [Compound 113, 3-(4-((2-(3-methoxy-4-methylphenyl)cyclopent-1-en-1-yl)methoxy)-2,3-dimethylphenyl)Propanoic Acid] |
| > 5000 | > 5000 |  |  | CCOc1ccc(C2=C(COc3ccc(CCC(=O)O)c(C)c3C)CCC2)cc1 [Compound 151, 3-[4-[[2-(4-ethoxyphenyl)cyclopenten-1-yl]methoxy]-2,3-dimethyl-phenyl]Propanoic Acid] |
| 1340 |  | 1250 |  | Cc1c(CCC(=O)O)ccc(OCC2=C(c3ccccc3Cl)CCCC2)c1C [Compound 464, 3-[4-[[2-(2-chlorophenyl)cyclohexen-1-yl]methoxy]-2,3-dimethyl-phenyl]Propanoic Acid] |
| 2260 |  | 1360 |  | CCOc1ccc(C2=C(COc3ccc(CCC(=O)O)c(C)c3C)CCCC2)cc1 [Compound 461, 3-[4-[[2-(4-ethoxyphenyl)cyclohexen-1-yl]methoxy]-2,3-dimethyl-phenyl]Propanoic Acid] |
| > 5000 | > 5000 |  |  | O=C(O)CCc1ccc(OCC2=C(c3ccc(Cl)cc3)CCCC2)cc1 [Compound 517, 3-[4-[[2-(4-chlorophenyl)cyclohexen-1-yl]methoxy]phenyl]Propanoic Acid] |
| > 20000 |  |  |  | CC(=O)Nc1ccc(C2=C(COc3ccc(CCC(=O)O)c(C)c3C)CCC2)cc1 [Compound 51, 3-[4-[[2-(4-acetamidophenyl)cyclopenten-1-yl]methoxy]-2,3-dimethyl-phenyl]Propanoic Acid] |
| 4440 |  | 1450 |  | Cc1c(CCC(=O)O)ccc(OCC2=C(c3ccc(OC(F)(F)F)cc3)CCCC2)c1C [Compound 466, 3-[2,3-dimethyl-4-[[2-[4-(trifluoromethoxy)phenyl]cyclohexen-1-yl]methoxy]phenyl]Propanoic Acid] |
| 2450 |  | 2470 |  | Cc1c(CCC(=O)O)ccc(OCC2=C(c3ccncc3)CCC2)c1C [Compound 139, 3-[2,3-dimethyl-4-[[2-(4-pyridyl)cyclopenten-1-yl]methoxy]phenyl]Propanoic Acid] |
|  | > 5000 | 156 | 227 | COc1ncc(C2=C(COc3ccc(CCC(=O)O)c(C)c3C)CCC2)cc1F [Compound 223, 3-[4-[[2-(5-fluoro-6-methoxy-3-pyridyl)cyclopenten-1-yl]methoxy]-2,3-dimethyl-phenyl]Propanoic Acid] |
|  | 1780 | 875 | 981 | O=C(O)CCc1ccc(OCC2=C(c3ccc(Cl)cc3)CCC2)cc1OC(F)(F)F [Compound 96, 3-[4-[[2-(4-chlorophenyl)cyclopenten-1-yl]methoxy]-2-(trifluoromethoxy)phenyl]Propanoic Acid] |
|  | > 5000 | 75 | 282 | O=C(O)CCc1cc(F)c(OCC2=C(c3cccc(F)c3)CC(F)(F)C2)c(F)c1 [Compound 215, 3-[4-[[4,4-difluoro-2-(3-fluorophenyl)cyclopenten-1-yl]methoxy]-3,5-difluoro-phenyl]Propanoic Acid] |
|  | > 5000 | 75 | 122 | Cc1c(CCC(=O)O)ccc(OCC2=C(c3ccc(F)cc3)CCC(F)(F)C2)c1C [Compound 497, 3-[4-[[5,5-difluoro-2-(4-fluorophenyl)cyclohexen-1-yl]methoxy]-2,3-dimethyl-phenyl]Propanoic Acid] |
|  | > 5000 | 119 | 245 | Cc1ccc(C2=C(COc3c(F)cc(CCC(=O)O)cc3F)CC(F)(F)CC2)s1 [Compound 562, 3-[4-[[5,5-difluoro-2-(5-methyl-2-thienyl)cyclohexen-1-yl]methoxy]-3,5-difluoro-phenyl]Propanoic Acid] |
|  | > 5000 | 78 | 84 | O=C(O)CCc1ccc(OCC2=C(c3ccc(F)cc3)CC(F)(F)C2)c(F)c1 [Compound 214, 3-[4-[[4,4-difluoro-2-(4-fluorophenyl)cyclopenten-1-yl]methoxy]-3-fluoro-phenyl]Propanoic Acid] |
|  | 1250 | 503 | 727 | CC(C)c1cc(OCC2=C(c3ccc(Cl)cc3)CCC2)ccc1CCC(=O)O [Compound 167, 3-[4-[[2-(4-chlorophenyl)cyclopenten-1-yl]methoxy]-2-isopropyl-phenyl]Propanoic Acid] |
|  | 4500 | 444 | 643 | Cc1cc(CCC(=O)O)ccc1OCC1=C(c2ccc(C#N)s2)CCC(F)(F)C1 [Compound 573, 3-[4-[[2-(5-cyano-2-thienyl)-5,5-difluoro-cyclohexen-1-yl]methoxy]-3-methyl-phenyl]Propanoic Acid] |
|  | 3030 | 207 | 208 | O=C(O)CCc1ccc(OCC2=C(c3ccc(F)cc3)CCC2)cc1 [Compound 43, 3-[4-[[2-(4-fluorophenyl)cyclopenten-1-yl]methoxy]phenyl]Propanoic Acid] |
|  | > 5000 | 27 | 259 | Cc1cc(CCC(=O)O)ccc1OCC1=C(c2cccc(F)c2)CC(F)(F)C1 [Compound 191, 3-[4-[[4,4-difluoro-2-(3-fluorophenyl)cyclopenten-1-yl]methoxy]-3-methyl-phenyl]Propanoic Acid] |
|  | > 5000 | 461 | 512 | Cc1cc(CCC(=O)O)cc(Br)c1OCC1=C(c2ccc(Cl)cc2)CCC1 [Compound 30, 3-[3-bromo-4-[[2-(4-chlorophenyl)cyclopenten-1-yl]methoxy]-5-methyl-phenyl]Propanoic Acid] |

— patent publication US11230526B1, “Cylcoalkenyl derivatives useful as agonists of the GPR120 and/or GPR40 receptors” (Janssen Pharmaceutica NV, priority 2018, dated 2022)
